Results taken from PubChem BioAssay AID256 (DTP/NCI, 2004).
Values joined by “and” are separate entries in the source; they are usually repeats but may differ in a detail not shown here. Equal values may be shown once. Inconclusive results and toxic doses are left out.

Test system: CD2F1 mice, L1210 leukemia ip, survival T/C
Experiment: NCI In Vivo Anticancer Drug Screen. Data for tumor model L1210 Leukemia (intraperitoneal) in CD2F1 (CDF1) mice
Settings: higher = longer survival
Method in brief: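 Transplantable tumor in mice; compound-treated vs vehicle-treated groups. Read-out = treated/control ratio of the measured endpoint.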

[1] = endpoint: mean survival time, dose: 100.0 mg/kg/injection, schedule: Q01DX009 (ip), vehicle: saline with Tween-80
[2] = endpoint: mean survival time, dose: 200.0 mg/kg/injection, schedule: Q01DX009 (ip), vehicle: saline with Tween-80
[3] = endpoint: mean survival time, dose: 12.5 mg/kg/injection, schedule: Q01DX009 (ip), vehicle: saline with Tween-80
[4] = endpoint: mean survival time, dose: 25.0 mg/kg/injection, schedule: Q01DX009 (ip), vehicle: saline with Tween-80
[5] = endpoint: mean survival time, dose: 50.0 mg/kg/injection, schedule: Q01DX009 (ip), vehicle: saline with Tween-80
[6] = endpoint: mean survival time, dose: 100.0 mg/kg/injection, schedule: Q04DX003 (ip), vehicle: saline with Tween-80
[7] = endpoint: mean survival time, dose: 200.0 mg/kg/injection, schedule: Q04DX003 (ip), vehicle: saline with Tween-80
[8] = endpoint: mean survival time, dose: 400.0 mg/kg/injection, schedule: Q04DX003 (ip), vehicle: saline with Tween-80

Compound: C[N+](C)(C)Cc1ccccc1/C(=N\O)c1ccccc1
- T/C (endpoint: mean survival time, dose: 5.0 mg/kg/injection, schedule: Q01DX009 (ip), vehicle: saline): 109 % of control
- T/C (endpoint: mean survival time, dose: 5.0 mg/kg/injection, schedule: Q04DX003 (ip), vehicle: saline): 116 % of control
- T/C (endpoint: mean survival time, dose: 10.0 mg/kg/injection, schedule: Q01DX009 (ip), vehicle: saline): 100 % of control
- T/C (endpoint: mean survival time, dose: 10.0 mg/kg/injection, schedule: Q04DX003 (ip), vehicle: saline): 98 % of control
- T/C (endpoint: mean survival time, dose: 20.0 mg/kg/injection, schedule: Q01DX009 (ip), vehicle: saline): 91 % of control
- T/C (endpoint: mean survival time, dose: 20.0 mg/kg/injection, schedule: Q04DX003 (ip), vehicle: saline): 89 % of control

Compound: N#CCCOCCC#N
- T/C (endpoint: mean survival time, dose: 100.0 mg/kg/injection, schedule: Q01DX009 (ip), vehicle: saline): 100 % of control
- T/C (endpoint: mean survival time, dose: 200.0 mg/kg/injection, schedule: Q01DX009 (ip), vehicle: saline): 98 % of control
- T/C (endpoint: mean survival time, dose: 400.0 mg/kg/injection, schedule: Q01DX009 (ip), vehicle: saline): 102 % of control

Compound: O=C1C=CC(=O)C1
- T/C (endpoint: mean survival time, dose: 5.0 mg/kg/injection, schedule: Q04DX002 (ip), vehicle: saline with Tween-80): 108 % of control

Compound: NCC(Cl)c1ccccc1 (stereo not drawn)
- T/C [1]: 97 % of control
- T/C [2]: 95 % of control

Compound: Cc1cc2ncn(CC(=O)O)c2cc1C
- T/C [1]: 98 % of control
- T/C [2]: 93 % of control

Compound: Cc1cc(=O)ncn1C
- T/C (endpoint: mean survival time, dose: 100.0 mg/kg/injection, schedule: Q04DX002 (ip), vehicle: saline): 101 % of control
- T/C (endpoint: mean survival time, dose: 200.0 mg/kg/injection, schedule: Q04DX002 (ip), vehicle: saline): 97 % of control
- T/C (endpoint: mean survival time, dose: 400.0 mg/kg/injection, schedule: Q04DX002 (ip), vehicle: saline): 101 % of control

Compound: Brc1ccc(C[N+]23CN4CN(CN(C4)C2)C3)cc1
- T/C [3]: 102 % of control
- T/C [4]: 102 % of control
- T/C [5]: 97 % of control
- T/C [1]: 96 % of control
- T/C [2]: 94 % of control

Compound: Cc1cn(C(C=O)OC(C=O)CO)c(=O)[nH]c1=O (stereo not drawn)
- T/C (endpoint: mean survival time, dose: 10.0 mg/kg/injection, schedule: Q01DX005 (ip), vehicle: water): 107 % of control
- T/C (endpoint: mean survival time, dose: 10.0 mg/kg/injection, schedule: Q01DX009 (ip), vehicle: water): 104 % of control
- T/C (endpoint: mean survival time, dose: 12.5 mg/kg/injection, schedule: Q01DX005 (ip), vehicle: water): 104 % of control
- T/C (endpoint: mean survival time, dose: 20.0 mg/kg/injection, schedule: Q01DX005 (ip), vehicle: water): 102 % of control
- T/C (endpoint: mean survival time, dose: 20.0 mg/kg/injection, schedule: Q01DX009 (ip), vehicle: water): 107 % of control
- T/C (endpoint: mean survival time, dose: 25.0 mg/kg/injection, schedule: Q01DX005 (ip), vehicle: water): 98 % of control
- T/C (endpoint: mean survival time, dose: 40.0 mg/kg/injection, schedule: Q01DX005 (ip), vehicle: water): 112 % of control
- T/C (endpoint: mean survival time, dose: 40.0 mg/kg/injection, schedule: Q01DX009 (ip), vehicle: water): 124 % of control
- T/C (endpoint: mean survival time, dose: 50.0 mg/kg/injection, schedule: Q01DX005 (ip), vehicle: water): 104 % of control
- T/C (endpoint: mean survival time, dose: 80.0 mg/kg/injection, schedule: Q01DX009 (ip), vehicle: water): 120 % of control
- T/C (endpoint: mean survival time, dose: 100.0 mg/kg/injection, schedule: Q01DX005 (ip), vehicle: water): 104 % of control
- T/C (endpoint: mean survival time, dose: 160.0 mg/kg/injection, schedule: Q01DX009 (ip), vehicle: water): 102 % of control
- T/C (endpoint: mean survival time, dose: 200.0 mg/kg/injection, schedule: Q01DX005 (ip), vehicle: water): 109 % of control

Compound: O=C(O)c1c(F)cccc1Br
- T/C (endpoint: mean survival time, dose: 100.0 mg/kg/injection, schedule: Q04DX002 (ip), vehicle: saline with Tween-80): 102 % of control
- T/C (endpoint: mean survival time, dose: 200.0 mg/kg/injection, schedule: Q04DX002 (ip), vehicle: saline with Tween-80): 98 % of control
- T/C (endpoint: mean survival time, dose: 400.0 mg/kg/injection, schedule: Q04DX002 (ip), vehicle: saline with Tween-80): 102 % of control

Compound: CCCn1c(O)c(C=N)c(=O)[nH]c1=O
- T/C [1]: 101 % of control
- T/C [6]: 91 % of control
- T/C [2]: 111 % of control
- T/C [7]: 92 % of control
- T/C [8]: 94 % of control

Compound: CCCCCCCCCCCCCCCC(=O)NCCN(CC)CC
- T/C [4]: 95 % of control
- T/C [5]: 98 % of control
- T/C (endpoint: mean survival time, dose: 75.0 mg/kg/injection, schedule: Q04DX003 (ip), vehicle: saline with Tween-80): 97 % of control
- T/C (endpoint: mean survival time, dose: 150.0 mg/kg/injection, schedule: Q01DX001 (ip), vehicle: saline): 98 % of control

Compound: CC(=O)Nc1ccccc1[N+](=O)[O-]
- T/C (endpoint: mean survival time, dose: 100.0 mg/kg/injection, schedule: Q01DX001 (ip), vehicle: saline with Tween-80): 103 % of control
- T/C (endpoint: mean survival time, dose: 200.0 mg/kg/injection, schedule: Q01DX001 (ip), vehicle: saline with Tween-80): 101 % of control
- T/C (endpoint: mean survival time, dose: 400.0 mg/kg/injection, schedule: Q01DX001 (ip), vehicle: saline with Tween-80): 103 % of control

Compound: O=C(O)CCc1cc([N+](=O)[O-])c(O)c([N+](=O)[O-])c1
- T/C [1]: 94 % of control
- T/C [2]: 89 % of control

Compound: CS(=O)(=O)CS(=O)(=O)OCCCl
- T/C (endpoint: median survival time, dose: 6.25 mg/kg/injection, schedule: Q01DX009 (ip), vehicle: saline with Tween-80): 116 % of control and 121 % of control
- T/C (endpoint: median survival time, dose: 12.5 mg/kg/injection, schedule: Q01DX009 (ip), vehicle: saline with Tween-80): 168 % of control
- T/C (endpoint: median survival time, dose: 25.0 mg/kg/injection, schedule: Q01DX009 (ip), vehicle: saline with Tween-80): 207 % of control and 228 % of control
- T/C (endpoint: median survival time, dose: 25.0 mg/kg/injection, schedule: Q01DX009 (ip), vehicle: saline): 197 % of control
- T/C (endpoint: median survival time, dose: 50.0 mg/kg/injection, schedule: Q01DX009 (ip), vehicle: saline with Tween-80): 370 % of control and 722 % of control
- T/C (endpoint: median survival time, dose: 50.0 mg/kg/injection, schedule: Q01DX009 (ip), vehicle: saline): 352 % of control
- T/C (endpoint: median survival time, dose: 100.0 mg/kg/injection, schedule: Q01DX009 (ip), vehicle: saline with Tween-80): 370 % of control
- T/C (endpoint: median survival time, dose: 100.0 mg/kg/injection, schedule: Q01DX009 (ip), vehicle: saline): 352 % of control

Compound: [Cl][Pt+2][Cl].[NH-]c1ccc(CC(=O)O)cc1[NH-]
- T/C (endpoint: mean survival time, dose: 3.13 mg/kg/injection, schedule: Q04DX003 (ip), vehicle: water): 103 % of control
- T/C (endpoint: mean survival time, dose: 6.25 mg/kg/injection, schedule: Q04DX003 (ip), vehicle: water): 105 % of control
- T/C (endpoint: mean survival time, dose: 12.5 mg/kg/injection, schedule: Q04DX003 (ip), vehicle: water): 101 % of control
- T/C (endpoint: mean survival time, dose: 25.0 mg/kg/injection, schedule: Q04DX003 (ip), vehicle: water): 116 % of control

Compound: O=C(CC(=O)Oc1ccc(Cl)cc1Cl)Oc1ccc(Cl)cc1Cl
- T/C [6]: 97 % of control
- T/C [7]: 101 % of control
- T/C [8]: 95 % of control

Compound: CCOC(=O)CSC(=S)NC1CCCCC1
- T/C [6]: 101 % of control
- T/C [7]: 98 % of control
- T/C [8]: 95 % of control

Compound: NC(=O)C[n+]1cccc(C(=O)Nc2ccccc2)c1
- T/C (endpoint: mean survival time, dose: 100.0 mg/kg/injection, schedule: Q01DX009 (ip), vehicle: saline sonified): 95 % of control
- T/C (endpoint: mean survival time, dose: 200.0 mg/kg/injection, schedule: Q01DX009 (ip), vehicle: saline sonified): 89 % of control

Compound: C/C=C/C(OC(C)=O)OC(C)=O
- T/C [1]: 97 % of control
- T/C [2]: 103 % of control

Compound: Cc1nc2cc3ccccc3cc2n1C1OC(CO)C(O)C1O (stereo not drawn)
- T/C (endpoint: median survival time, dose: 26.5 mg/kg/injection, schedule: Q01DX005 (ip), vehicle: saline with Tween-80): 92 % of control
- T/C (endpoint: median survival time, dose: 53.0 mg/kg/injection, schedule: Q01DX005 (ip), vehicle: saline with Tween-80): 103 % of control
- T/C (endpoint: median survival time, dose: 106.0 mg/kg/injection, schedule: Q01DX005 (ip), vehicle: saline with Tween-80): 93 % of control
- T/C (endpoint: median survival time, dose: 212.0 mg/kg/injection, schedule: Q01DX005 (ip), vehicle: saline with Tween-80): 88 % of control

Compound: N#CC12OC1(C#N)C(=O)C=CC2=O (stereo not drawn)
- T/C (endpoint: mean survival time, dose: 6.25 mg/kg/injection, schedule: Q01DX001 (ip), vehicle: saline): 104 % of control
- T/C (endpoint: mean survival time, dose: 12.5 mg/kg/injection, schedule: Q01DX001 (ip), vehicle: saline): 89 % of control
- T/C (endpoint: mean survival time, dose: 25.0 mg/kg/injection, schedule: Q01DX001 (ip), vehicle: saline): 93 % of control

Compound: Oc1ccc(SCc2ccc(NCc3ccccc3)cc2)cc1
- T/C (endpoint: mean survival time, dose: 12.5 mg/kg/injection, schedule: Q01DX009 (ip), vehicle: DMSO): 95 % of control
- T/C [3]: 99 % of control
- T/C (endpoint: mean survival time, dose: 25.0 mg/kg/injection, schedule: Q01DX009 (ip), vehicle: DMSO): 97 % of control
- T/C [4]: 97 % of control
- T/C (endpoint: mean survival time, dose: 50.0 mg/kg/injection, schedule: Q01DX009 (ip), vehicle: DMSO): 97 % of control
- T/C [5]: 103 % of control
- T/C (endpoint: mean survival time, dose: 100.0 mg/kg/injection, schedule: Q01DX009 (ip), vehicle: DMSO): 92 % of control
- T/C [1]: 104 % of control
- T/C [2]: 101 % of control
- T/C (endpoint: mean survival time, dose: 400.0 mg/kg/injection, schedule: Q01DX009 (ip), vehicle: saline with Tween-80): 101 % of control

Compound: NC(=O)C(NCc1ccccc1)c1ccccc1 (stereo not drawn)
- T/C [6]: 94 % of control
- T/C [7]: 99 % of control
